Test results published in US7741362B2, “Somatostatin receptor 1 and/or 4 selective agonists and antagonists” (Siegfried Wurster, priority 2003, dated 2010).
Like-named read-outs stand apart in the source and are kept apart here.

Legend:
[1] = target: T1, human somatostatin receptor subtype SSTR4 (Homo sapiens, UniProt P31391); assay: Competition binding with 125I-LTT-sst-28, human somatostatin receptor subtype SSTR4
T1 construct: expressed in transfected cells; host or cells: CHO cells (membranes)
T1 sequence (P31391 whole entry): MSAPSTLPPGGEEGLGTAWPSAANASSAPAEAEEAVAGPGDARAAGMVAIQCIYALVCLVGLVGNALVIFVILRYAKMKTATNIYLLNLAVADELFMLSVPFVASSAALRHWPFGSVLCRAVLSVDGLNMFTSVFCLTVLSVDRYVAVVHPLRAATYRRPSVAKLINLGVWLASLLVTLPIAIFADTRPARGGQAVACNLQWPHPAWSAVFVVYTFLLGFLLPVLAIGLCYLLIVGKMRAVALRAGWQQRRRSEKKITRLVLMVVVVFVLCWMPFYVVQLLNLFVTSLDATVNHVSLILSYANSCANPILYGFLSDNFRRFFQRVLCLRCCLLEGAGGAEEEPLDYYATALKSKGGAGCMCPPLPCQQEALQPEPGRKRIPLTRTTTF
Experimental: (§1) The affinity of the compounds of the invention for the five human somatostatin receptor subtypes (SSTR1, SSTR2, SSTR3, SSTR4, and SSTR5) was determined in competition binding assays with (^125I-Tyr)-[Leu^8,DTrp^22]-somatostatin-28 (^125I-LTT-sst-28). The biological material for these experiments consisted of membranes from Chinese hamster ovary (CHO) cells stably transfected with one of the five human somatostatin receptor subtypes. Membranes (3-20 μg of total protein per sample) and trace amount of ^125I-LTT-sst-28 were incubated in 10 mM Hepes, 1 mM EDTA, 5 mM MgCl2, 5 mg/ml of BSA and 30 μg/ml bacitracin, pH 7.6 with six concentrations of the compounds. Each concentration was run in duplicate. Nonspecific binding was defined by 1 μM somatostatin-14 (sst-14) and corresponded to 5-25% of total binding. After 60 min at room temperature, incubations were terminated by rapid vacuum filtration through GF/B glass fiber filter mats (presoaked at 4° C. in 200 ml of 10 mM Hepes, 1 mM EDTA, 5 mM MgCl2, pH 7.6) and three 5 ml washes with ice-cold wash buffer (20 mM TRIS, 1 mM EDTA, 5 mM MgCl2, pH 7.4). The filters were then dried, impregnated with scintillate and their radioactivity was measured by scintillation counting. The analysis of the experiments was carried out by nonlinear least square curve fitting. Affinity constants (Ki) were calculated from the IC50 values according to the Cheng-Prusoff's equation (Cheng and Prusoff, 1973). Experiments were repeated a minimum of three times.

[2] = target: T2, human somatostatin receptor subtype SSTR5 (Homo sapiens, UniProt P35346); assay: Competition binding with 125I-LTT-sst-28, human somatostatin receptor subtype SSTR5; details: membranes from CHO cells stably transfected with human SSTR5, Cheng-Prusoff
T2 construct: expressed in transfected cells; host or cells: CHO cells (membranes)
T2 sequence (P35346 whole entry): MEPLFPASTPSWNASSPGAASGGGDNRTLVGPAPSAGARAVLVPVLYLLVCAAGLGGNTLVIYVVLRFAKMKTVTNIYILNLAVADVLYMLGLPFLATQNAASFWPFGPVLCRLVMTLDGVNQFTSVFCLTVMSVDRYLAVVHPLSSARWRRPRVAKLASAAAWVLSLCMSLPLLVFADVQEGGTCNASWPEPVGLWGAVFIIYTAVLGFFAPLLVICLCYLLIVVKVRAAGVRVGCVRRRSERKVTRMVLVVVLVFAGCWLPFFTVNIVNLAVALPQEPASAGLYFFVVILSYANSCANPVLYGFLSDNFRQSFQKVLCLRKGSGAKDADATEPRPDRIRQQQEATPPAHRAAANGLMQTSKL
Experimental: as §1, with “The analysis of the experiments was carried out by nonlinear least square curve fitting.” left out, “Experiments were repeated a minimum of three times.” left out

[3] = target: T3, human somatostatin receptor subtype SSTR3 (Homo sapiens, UniProt P32745); assay: Competition binding with 125I-LTT-sst-28, human somatostatin receptor subtype SSTR3; details: membranes from CHO cells stably transfected with human SSTR3, Cheng-Prusoff
T3 construct: expressed in transfected cells; host or cells: CHO cells (membranes)
T3 sequence (P32745 whole entry): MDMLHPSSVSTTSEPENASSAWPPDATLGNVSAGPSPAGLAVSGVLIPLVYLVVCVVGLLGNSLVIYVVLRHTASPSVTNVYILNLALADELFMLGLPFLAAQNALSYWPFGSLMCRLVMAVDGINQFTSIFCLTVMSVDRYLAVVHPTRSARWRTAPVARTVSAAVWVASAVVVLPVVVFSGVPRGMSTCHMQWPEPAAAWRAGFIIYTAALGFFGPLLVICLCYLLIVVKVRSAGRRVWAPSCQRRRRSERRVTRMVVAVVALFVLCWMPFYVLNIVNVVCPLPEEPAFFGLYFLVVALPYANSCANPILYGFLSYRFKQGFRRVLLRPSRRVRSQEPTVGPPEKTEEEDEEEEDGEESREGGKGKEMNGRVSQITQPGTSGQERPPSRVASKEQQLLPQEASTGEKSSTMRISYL
Experimental: as §1, with “The analysis of the experiments was carried out by nonlinear least square curve fitting.” left out, “Experiments were repeated a minimum of three times.” left out

[4] = target: T4, human somatostatin receptor subtype SSTR2 (Homo sapiens, UniProt P30874); assay: Competition binding with 125I-LTT-sst-28, human somatostatin receptor subtype SSTR2; details: membranes from CHO cells stably transfected with human SSTR2, Cheng-Prusoff
T4 construct: expressed in transfected cells; host or cells: CHO cells (membranes)
T4 sequence (P30874 whole entry): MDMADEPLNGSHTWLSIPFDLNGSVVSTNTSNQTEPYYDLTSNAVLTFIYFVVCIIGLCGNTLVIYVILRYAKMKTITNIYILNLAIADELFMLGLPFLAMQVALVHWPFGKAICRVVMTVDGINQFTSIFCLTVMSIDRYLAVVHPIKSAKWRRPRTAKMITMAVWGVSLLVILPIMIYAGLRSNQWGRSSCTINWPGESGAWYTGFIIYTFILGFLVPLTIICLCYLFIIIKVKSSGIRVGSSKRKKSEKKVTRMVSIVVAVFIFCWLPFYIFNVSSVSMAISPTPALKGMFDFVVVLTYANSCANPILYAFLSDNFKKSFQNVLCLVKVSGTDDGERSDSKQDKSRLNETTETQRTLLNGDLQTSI
Experimental: as §1, with “The analysis of the experiments was carried out by nonlinear least square curve fitting.” left out, “Experiments were repeated a minimum of three times.” left out

[5] = target: T5, human somatostatin receptor subtype SSTR1 (Homo sapiens, UniProt P30872); assay: Competition binding with 125I-LTT-sst-28, human somatostatin receptor subtype SSTR1
T5 construct: expressed in transfected cells; host or cells: CHO cells (membranes)
T5 sequence (P30872 whole entry): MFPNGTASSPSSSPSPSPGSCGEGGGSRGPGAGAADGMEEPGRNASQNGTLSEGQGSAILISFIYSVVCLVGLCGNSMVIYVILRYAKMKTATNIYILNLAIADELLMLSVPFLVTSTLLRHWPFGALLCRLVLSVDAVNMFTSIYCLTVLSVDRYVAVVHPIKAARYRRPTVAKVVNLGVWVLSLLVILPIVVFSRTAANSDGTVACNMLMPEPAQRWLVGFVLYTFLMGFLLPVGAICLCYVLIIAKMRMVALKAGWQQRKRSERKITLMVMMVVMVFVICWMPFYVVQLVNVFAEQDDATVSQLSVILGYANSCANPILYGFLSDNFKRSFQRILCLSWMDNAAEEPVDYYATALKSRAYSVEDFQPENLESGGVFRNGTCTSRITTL
Experimental: as §1

[6] = same protocol, less than 300 nM, read-out: Ki for SSTR4 (bound)
[7] = membranes from CHO cells stably transfected with human SSTR4, 125I-LTT-sst-28, Cheng-Prusoff, read-out: Ki (SSTR4)
[8] = same protocol, less than 300 nM, read-out: Ki for SSTR1 (bound)

Compound | Ki [1, 6] | Ki [5, 8] | other results
Cc1ccc(S(=O)(=O)N[C@@H](CCN)C(=O)N[C@H](C(N)=O)C(C)C)c2ccccc12 [Compound 13, 4-amino-N-((S)-1-carbamoyl-2-methylpropyl)-(S)-2-(N′-(4-methyl-1-naphthalenesulfonyl)amino)butanamide] | < 300 nM | – | –
NCC[C@H](NS(=O)(=O)c1cccc2ccccc12)C(=O)N[C@@H](Cc1ccccc1)C(N)=O [Compound 10, 4-amino-N-((S)-1-carbamoyl-2-phenylethyl)-(S)-2-(N′-(1-naphthalenesulfonyl)amino)butanamide] | < 300 nM | – | –
N=C(N)NCCC[C@H](NS(=O)(=O)c1cccc(-c2ccccc2)c1)C(=O)N[C@@H](Cc1ccccc1)C(N)=O [Compound 16, N-((S)-1-carbamoyl-2-phenylethyl)-5-guanidino-(S)-2-(N′-(3-phenylbenzenesulfonyl)amino)pentanamide] | < 300 nM | – | –
Cc1ccc(S(=O)(=O)N[C@@H](CCNC(=N)N)C(=O)NCc2ccccc2)c2ccccc12 [Compound 4, N-benzyl-4-guanidino-(S)-2-(N′-(4-methyl-1-naphthalenesulfonyl)amino)butanamide] | < 300 nM | – | –
Cc1ccc(S(=O)(=O)NC(CCCNC(C)C)C(=O)NC2CCCc3ccccc32)c2ccccc12 [Compound 17, 5-N-isopropylamino-(S)-2-N′-(4-methyl-1-naphthalene-sulfonyl)amino-N″-(1,2,3,4-tetrahydro-1-naphthyl)-pentanamide] | – | – | Ki [1, 7]: 84 ± 23 nM; Ki [2]: > 10000 nM; Ki [3]: > 2000 nM; Ki [4]: > 10000 nM; Ki ([5]; membranes from CHO cells stably transfected with human SSTR1, 125I-LTT-sst-28, Cheng-Prusoff, read-out: Ki (SSTR1)): 1 ± 0.4 nM
Cc1ccc(S(=O)(=O)N[C@@H](CCCNC(=N)N)C(=O)N[C@@H](Cc2ccccc2)C(N)=O)c2ccccc12 [Compound 5, N-((S)-1-carbamoyl-2-phenylethyl)-5-guanidino-(S)-2-(N′-(4-methyl-1-naphthalenesulfonyl)amino)pentanamide] | < 300 nM | < 300 nM | –
Cc1ccc(S(=O)(=O)N[C@@H](CCCN)C(=O)N[C@@H](Cc2cccc(Cl)c2)C(N)=O)c2ccccc12 [Compound 21, 5-amino-N-((S)-1-carbamoyl-2-(3-chlorophenyl)ethyl)-(S)-2-(N′-(4-methyl-1-naphthalenesulfonyl)amino)-pentanamide] | – | < 300 nM | –
Cc1ccc(S(=O)(=O)N[C@@H](CCNC(C)C)C(=O)NCc2ccccc2)c2ccccc12 [Compound 3, N-benzyl-4-(N′-isopropyl)amino-(S)-2-(N″-(4-methyl-1-naphthalenesulfonyl)amino)butanamide] | < 300 nM | < 300 nM | –
N=C(N)NCCC[C@H](NS(=O)(=O)c1ccc2ccccc2c1)C(=O)N[C@@H](Cc1ccccc1)C(N)=O [Compound 15, N-((S)-1-carbamoyl-2-phenylethyl)-5-guanidino-(S)-2-(N′-(2-naphthalenesulfonyl)amino)pentanamide] | – | < 300 nM | –
Cc1ccc(S(=O)(=O)NC(CCN)C(=O)NC2CCCc3ccccc32)c2ccccc12 [Compound 18, 4-amino-(S)-2-N-(4-methyl-1-naphthalenesulfonyl)-amino-N′-(1,2,3,4-tetrahydro-1-naphthyl)butanamide] | – | < 300 nM | –
CCc1cc(Br)ccc1S(=O)(=O)NC(CCN)C(=O)NC(Cc1ccccc1)C(N)=O [Compound 14, 4-amino-(S)-2-N-(4-bromo-2-ethylbenzenesulfonyl)-amino-N′-((S)-1-carbamoyl-2-phenylethyl)butanamide] | < 300 nM | – | –
CCc1ccc(S(=O)(=O)N[C@@H](CCN)C(=O)N[C@@H](Cc2ccccc2)C(N)=O)c2ccccc12 [Compound 8, 4-amino-N-((S)-1-carbamoyl-2-phenylethyl)-(S)-2-(N′-(4-ethyl-1-naphthalenesulfonyl)amino)butanamide] | < 300 nM | – | –
Cc1ccc(S(=O)(=O)N[C@@H](CCCN)C(=O)NCCc2c[nH]c3ccccc23)c2ccccc12 [Compound 20, 5-amino-N-(2-(1H-indol-3-yl)ethyl)-(S)-2-(N′-(4-methyl-1-naphthalenesulfonyl)amino)pentanamide] | < 300 nM | – | –
CNCC[C@H](NS(=O)(=O)c1ccc(C)c2ccccc12)C(=O)NCCc1cccc(Cl)c1 [Compound 23, N-(2-(3-chlorophenyl)ethyl)-4-N′-methylamino-(S)-2-(N″-(4-methyl-1-naphthalenesulfonyl)amino)-butanamide] | – | < 300 nM | –
Cc1ccc(S(=O)(=O)NC(CCCN)C(=O)NC2(C(N)=O)CCc3ccccc3C2)c2ccccc12 [Compound 22, 5-amino-N-(2-(2-carbamoyl)-1,2,3,4-tetrahydronaphthyl)-(S)-2-(N′-(4-methyl-1-naphthalenesulfonyl)amino)-pentanamide] | – | < 300 nM | –
Cc1ccc(S(=O)(=O)N[C@@H](CCCN)C(=O)N[C@@H](Cc2ccccc2)C(N)=O)c2ccccc12 [Compound 7, 5-amino-N-((S)-1-carbamoyl-2-phenylethyl)-(S)-2-(N′-(4-methyl-1-naphthalenesulfonyl)amino)pentanamide] | < 300 nM | < 300 nM | –
Cc1ccc(S(=O)(=O)N[C@@H](CCCNC(=N)N)C(=O)N[C@H](C(N)=O)C(c2ccccc2)c2ccccc2)c2ccccc12 [Compound 6, N-((S)-1-carbamoyl-2,2-diphenylethyl)-5-guanidino-(S)-2-(N′-(4-methyl-1-naphthalenesulfonyl)amino)pentanamide] | < 300 nM | < 300 nM | –
Cc1ccc(S(=O)(=O)N[C@@H](CCN)C(=O)N[C@@H](Cc2ccccc2)C(N)=O)c2ccccc12 [Compound 2, 4-amino-N-(S)-1-carbamoyl-2-phenylethyl-(S)-2-(N′-(4-methyl-1-naphthalenesulfonyl)amino)butanamide] | – | – | Ki [1, 7]: 1.2 ± 0.4 nM; Ki [4]: > 5000 nM
Cc1ccc(S(=O)(=O)N[C@@H](CCN)C(=O)N[C@H](C(N)=O)C(c2ccccc2)c2ccccc2)c2ccccc12 [Compound 9, 4-amino-N-((S)-1-carbamoyl-2,2-diphenylethyl)-(S)-2-(N′-(4-methyl-1-naphthalenesulfonyl)amino)butanamide] | < 300 nM | – | –
Cc1ccc(S(=O)(=O)N[C@@H](CCN)C(=O)NC2CCCCC2)c2ccccc12 [Compound 1, 4-amino-N-cyclohexyl-(S)-2-(N′-(4-methyl-1-naphthalenesulfonyl)amino)butanamide] | < 300 nM | – | –
Cc1ccc(S(=O)(=O)N[C@@H](CCNC2CCCCC2)C(=O)NCc2ccccc2)c2ccccc12 [Compound 11, N-benzyl-4-N′-cyclohexylamino-(S)-2-(N″-(4-methyl-1-naphthalenesulfonyl)amino)butanamide] | – | < 300 nM | –
CCCCOc1ccc(S(=O)(=O)NC(CCCNC(=N)N)C(=O)NC(Cc2ccccc2)C(N)=O)cc1 [Compound 12, (S)-2-N-(4-butoxybenzenesulfonyl)amino-N′-((S)-1-carbamoyl-2-phenylethyl)-5-guanidinopentanamide] | – | < 300 nM | –
Cc1ccc(S(=O)(=O)N[C@@H](CCCN)C(=O)NC2(C(N)=O)Cc3ccccc3C2)c2ccccc12 [Compound 19, 5-amino-N-(2-(2-carbamoyl)indanyl)-(S)-2-(N′-(4-methyl-1-naphthalenesulfonyl)amino)pentanamide] | < 300 nM | – | –
